Data reported in the NIST ThermoML archive (doi:10.1016/j.jct.2016.09.007).

Experiment: xn = mol fraction of the nth substance listed
Conditions: 93.2 kPa, Liquid; for speed of sound: Frequency=3 MHz, Sing-around technique in a fixed-path interferometer; for mass density: Vibrating tube method

CCCC(=O)[O-].CCCC[NH3+] [n-butylammonium butanoate] + CCCO
Conditions	mass density, 293.15 K [kg/m3]	mass density, 298.15 K [kg/m3]	mass density, 303.15 K [kg/m3]	mass density, 308.15 K [kg/m3]	mass density, 313.15 K [kg/m3]	speed of sound, 293.15 K [m/s]	speed of sound, 298.15 K [m/s]	speed of sound, 303.15 K [m/s]	speed of sound, 308.15 K [m/s]	speed of sound, 313.15 K [m/s]
x1 = 0.0507	820.248	816.288	812.295	808.263	804.187	1245.5	1228.1	1210.8	1193.6	1176.7
x1 = 0.1012	834.054	830.162	826.227	822.265	818.288	1264	1246.6	1229.4	1212.2	1195.2
x1 = 0.1518	845.668	841.844	837.991	834.106	830.181	1280	1262.6	1245.3	1228.2	1211.2
x1 = 0.202	855.786	852.003	848.218	844.396	840.532	1294.2	1276.9	1259.7	1242.6	1225.6
x1 = 0.2517	864.424	860.713	856.978	853.215	849.411	1306.7	1289.3	1272.1	1255	1238.2
x1 = 0.3003	871.964	868.301	864.616	860.902	857.161	1317.9	1300.6	1283.4	1266.4	1249.5
x1 = 0.3334	876.626	872.985	869.329	865.652	861.938	1325	1307.7	1290.6	1273.6	1256.7
x1 = 0.401	885.2	881.621	878.022	874.402	870.759	1338.2	1321	1303.9	1286.9	1270.2
x1 = 0.4478	890.446	886.895	883.335	879.756	876.162	1346.9	1329.7	1312.6	1295.7	1279
x1 = 0.5001	895.864	892.351	888.828	885.287	881.725	1355.5	1338.3	1321.2	1304.4	1287.8
x1 = 0.5465	900.176	896.692	893.2	889.694	886.168	1362.8	1345.6	1328.5	1311.7	1295.1
x1 = 0.5992	904.688	901.241	897.78	894.304	890.806	1370.7	1353.4	1336.4	1319.6	1303
x1 = 0.6495	908.619	905.208	901.781	898.337	894.874	1377.9	1360.5	1343.5	1326.6	1310.1
x1 = 0.6928	911.76	908.377	904.977	901.561	898.121	1384	1366.5	1349.4	1332.5	1316
x1 = 0.7484	915.581	912.23	908.868	905.487	902.083	1392	1374.2	1356.9	1340	1323.4
x1 = 0.7906	918.267	914.932	911.595	908.238	904.859	1398.1	1380.1	1362.6	1345.6	1328.9
x1 = 0.8695	922.883	919.552	916.236	912.916	909.578	1409.8	1391.2	1373.3	1355.9	1339
x1 = 0.9443	926.755	923.441	920.127	916.826	913.524	1420	1400.6	1382	1364.2	1347
x1 = 1	928.794	925.509	922.217	918.88	915.567	1431.5	1410.3	1390.4	1371.5	1353.6
